Laboratory results: patent publication US20110038796A1, “Method of Nuclear Medical Photography Using Dual-Isotopes” (ATOMIC ENERGY COUNCIL-INSTITUTE OF NUCLEAR ENERGY RESEARCH, priority 2009, published 2011)
Counter-ions that a name gives are not always drawn.

Experiments:
[1] = tested on: dopamine transporter; assay: SPECT with [^99mTc]TRODAT-1 (single-isotope or dual-isotopes), specific uptake ratio in striatum; type: in vivo, Macaca Cyclopis
Protocol: (§1) Please refer to FIG. 1, which is a flow view showing a preferred embodiment according to the present disclosure. As shown in the figure, the present disclosure is a method of nuclear medical photography using dual-isotopes, where effect of using dual isotopes on diagnosing anomalies of dopamine and serotonin in primate's brain is evaluated. The present disclosure comprises the following steps: (a) Obtaining control group 11: A control group is obtained, comprising at least one first individual applied with an imaging agent of single-isotope of [^99mTc]TRODAT-1 for dopamine transporter; at least one second individual applied with an imaging agent of single-isotope of [^123I]ADAM for serotonin transporter; and at least one third individual applied with imaging agents of dual-isotopes of [^99mTc]TRODAT-1 and [^123I]ADAM. Therein, the individuals are non-human primates, like Macaca Cyclopis.
(§2) (b) Taking photos for control group 12: Photos of the first to the third individuals in the control group are taken through single photon emission computed tomography (SPECT). Therein, on taking the photo of the first individual applied with the single-isotope of [^99mTc]TRODAT-1, 90 mg/ml of KClO4 is applied to the first individual at first; and, then, after 20 minutes, 740 MBq (20 mCi) of [^99mTc]TRODAT-1 is injected from intravenous. After [^99mTc]TRODAT-1 is injected, a SPECT device equipped with dual-headed gamma cameras (Hawkeye, Millennium VG, General Elecral Medical System, Milwaukee, Wis. USA) coordinated with fan-beam collimators is used to take photos, where 15 dynamic sequence of brain images are taken during 30 minutes (2 min/frame). Therein, an energy window is set between 126 Kev and 154 Kev; data of 128×128 pixel-matrice are fetched; each photo are enlarged for 1.6 times; a photo is taken for each 3° from 360°; and, each of the two detectors is responsible for taking photos for 180°. After data are collected and processed through Metz filter with attenuation calibration, three three-dimensional (3D) photos of coronal, sagittal and transaxial sections are formed. On taking the photo of the second individual applied with the single-isotope of [^123I]ADAM, 185 MBq (5 mCi) of [^123I]ADAM is injected from intravenous; and, an energy window is set between 143 Kev and 175 Kev. On taking the photo of the third individual applied with the dual-isotopes, 90 mg/ml of KClO4 is applied to the […] at first; and, after 20 minutes, 740 MBq (20 mCi) of [^99mTc]TRODAT-1 and 185 MBq (5 mCi) of [^123I]ADAM are injected from intravenous almost simultaneously. Therein, an energy window for [^99mTc]TRODAT-1 is set between 129 Kev and 151 Kev and another energy window for [^123I]ADAM is set between 159 Kev and 175 Kev.
(§3) (c) Analyzing photos of control group 13: Magnetic resonance imaging (MRI) photos of the first to the third individuals are taken to provide reference information for the following analysis:
(§4) (c3) Analysis on dual-isotopes: The photo of the third individual applied with the dual-isotopes of [^123I]ADAM and [^99mTc]TRODAT-1 obtained in step (b) are processed through visual interpretation to figure out an SUR of [^99mTc]TRODAT-1 in striatum and an SUR of [^123I]ADAM in midbrain, thalamus, striatum and frontal cortex.

[2] = tested on: serotonin transporter; assay: SPECT with [^123I]ADAM (single-isotope or dual-isotopes), specific uptake ratio in brain regions; type: in vivo, Macaca Cyclopis
Protocol: as §1, §2, §3
(c1) Analysis on [^123I]ADAM: The photo of the […] individual applied with the single-isotope of [^123I]ADAM obtained in step (b) are processed through visual interpretation to pick out regions of interest (ROI) abundant in serotonin transporter, like midbrain, thalamus, striatum and frontal cortex; and a region lack of serotonin transporter, like cerebellum, is set as background. Mean counts per pixel (MCPP) of the ROIs are deducted with MCPPs of the background and then are divided by the MCPPs of the background to figure out a specific uptake ratios (SUR) of the single-isotope of [^123I]ADAM.
as §4

[3] = target: dopamine transporter (Homo sapiens, UniProt Q01959); details: cited from earlier work
dopamine transporter (Homo sapiens, UniProt Q01959), sequence (Q01959 whole entry): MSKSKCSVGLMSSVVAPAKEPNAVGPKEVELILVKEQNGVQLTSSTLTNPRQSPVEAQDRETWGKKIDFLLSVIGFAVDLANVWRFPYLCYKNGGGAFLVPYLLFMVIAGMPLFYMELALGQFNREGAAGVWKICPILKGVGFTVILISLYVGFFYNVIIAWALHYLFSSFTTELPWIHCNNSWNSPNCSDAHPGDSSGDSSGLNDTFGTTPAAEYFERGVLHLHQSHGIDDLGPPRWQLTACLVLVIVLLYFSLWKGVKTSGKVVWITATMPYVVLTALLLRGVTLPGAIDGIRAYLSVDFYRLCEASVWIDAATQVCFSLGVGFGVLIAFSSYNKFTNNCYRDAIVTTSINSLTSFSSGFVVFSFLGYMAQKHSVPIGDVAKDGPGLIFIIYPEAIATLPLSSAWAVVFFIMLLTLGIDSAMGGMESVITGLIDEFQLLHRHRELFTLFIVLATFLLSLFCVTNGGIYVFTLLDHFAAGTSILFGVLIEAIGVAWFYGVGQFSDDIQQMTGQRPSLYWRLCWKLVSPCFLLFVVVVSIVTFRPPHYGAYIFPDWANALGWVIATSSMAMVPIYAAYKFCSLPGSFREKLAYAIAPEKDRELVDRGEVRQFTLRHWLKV

[4] = 180 to 210 minutes after injection

COC(=O)C(c1ccccc1)C1CCCCN1 (stereo not drawn) [methylphenidate HCl]
uptakes of [^99mTc]TRODAT-1 of striatum after pretreatment with methylphenidate HCl (conclusion) ([1]; dual-isotopes): obviously reduced
[^99mTc]TRODAT-1 SURs after pretreatment with methylphenidate HCl ([1]; dual-isotopes, 180 to 210 minutes after injection, methylphenidate HCl 1 mg/kg 10 minutes before): greatly lowered
uptakes of [^123I]ADAM after pretreatment with methylphenidate HCl versus not pretreated ([2]; midbrain, striatum, thalamus and frontal cortex, dual-isotopes, 180 to 210 minutes after injection, methylphenidate HCl 1 mg/kg): no big difference
specific uptakes of [^123I]ADAM after pretreatment with methylphenidate HCl versus not pretreated (conclusion) ([2]; midbrain, thalamus, striatum and frontal cortex): no big changes
[^123I]ADAM SURs after pretreatment with methylphenidate HCl ([2]; striatum, thalamus and midbrain, dual-isotopes, methylphenidate HCl 1 mg/kg): no big changes

CNCCC(Oc1ccc(C(F)(F)F)cc1)c1ccccc1 (stereo not drawn) [fluoxetine]
[^99mTc]TRODAT-1 SURs after pretreatment with fluoxetine ([1]; dual-isotopes, 180 to 210 minutes after injection, pretreated with fluoxetine for 16 hours): no big changes
uptakes of [^99mTc]TRODAT-1 of striatum after pretreatment with fluoxetine versus not pretreated (conclusion) ([1]; pretreated with fluoxetine for 16 hours): no big difference

CN(C)Cc1ccccc1Sc1ccc([123I])cc1N [[^123I]ADAM]
[^123I]ADAM photos, single-isotope versus dual-isotopes [2, 4]: no big difference
binding of [^123I]ADAM in brain regions (SPECT photos) ([2]; 180 to 210 minutes after injection, midbrain, thalamus and striatum, single-isotope or dual-isotopes): bound to regions abundant in serotonin transporter
[^123I]ADAM SURs, single-isotope versus dual-isotopes ([2]; striatum, thalamus, midbrain and frontal cortex): no big difference

CN1[C@H]2CC[C@@H]1[C@@H](CN(CC[S-])CC[N-]CC[S-])[C@@H](c1ccc(Cl)cc1)C2.[O]=[99Tc+4] [[^99mTc]TRODAT-1]
[^99mTc]TRODAT-1 SUR of striatum, single-isotope versus dual-isotopes [1, 4]: no big difference
time to reach the highest binding level after injection [3]: within two hours
